Results as given in patent US20130296311A1, “INHIBITORS OF HCV NS5A” (PRESIDIO PHARMACEUTICALS, INC., priority 2010, published 2013).

These molecules were tested on HCV 1b_Huh-Luc/Neo-ET cell line persistently expressing a bicistronic genotype 1b replicon in Huh 7 cells (assay: HCV replicon assay (luciferase readout, 72 h)). Details: Hepatitis C virus, Huh-7, 72 h, read-out: Inhibition of HCV genotype 1b.
Format: cell-based, HCV genotype 1b
In short: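 Huh 7 cells carrying a bicistronic genotype 1b luciferase/neo replicon received compound in triplicate the day after plating. After 72 h, replicon levels were read as Bright-Glo luciferase activity, expressed as % of control; EC50 was fitted with a four-parameter logistic and determined several times.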

SMILES | EC50
COC(=O)N[C@H](C(=O)N[C@@H](C)c1ncc(-c2ccc(C#Cc3ccc(-c4cnc([C@@H]5CCCN5C(=O)[C@@H](NC(=O)OC)[C@@H](C)O)[nH]4)cc3)cc2)[nH]1)[C@@H](C)O [Compound 291] | < 1 nM
O=C(N[C@@H](C(=O)N1CCC[C@H]1c1ncc(-c2ccc3nc(C#Cc4ccc5nc([C@@H]6CCCN6C(=O)[C@H](NC(=O)OC6CCOCC6)c6ccccc6)[nH]c5c4)ccc3c2)[nH]1)c1ccccc1)OC1CCOCC1 [Compound 1110] | < 1 nM
COC(=O)N[C@@H](C(=O)N1CCC[C@H]1c1ncc(-c2ccc(C#Cc3ccc(-c4cnc([C@@H]5CCCN5C(=O)[C@H]5CCCO5)[nH]4)cc3)cc2)[nH]1)c1ccccc1 [Compound 177] | < 1 nM
CC(C)[C@@H](NC(=O)C1CC1)C(=O)N1CCC[C@H]1C(=O)Nc1ccc(C#Cc2cnc([C@@H]3CCCN3C(=O)[C@H](NC(=O)C3CC3)C(C)C)[nH]2)cc1 [Compound 116] | 1 to 9.9 nM
CC[C@H](NC(=O)OC)C(=O)N1CCC[C@H]1c1ncc(-c2ccc(C#Cc3ccc4nc([C@@H]5CCCN5C(=O)[C@H](CC)NC(=O)OC)[nH]c4c3)cc2)[nH]1 [Compound 1036] | < 1 nM
O=C(N[C@@H](C(=O)N1CCC[C@H]1C(=O)NCCc1ccc(C#Cc2cnc([C@@H]3CCCN3C(=O)[C@H](NC(=O)C3CC3)c3ccccc3)[nH]2)cc1)c1ccccc1)C1CC1 [Compound 125] | < 1 nM
COC(=O)N[C@H](C(=O)N1CCC[C@H]1c1ncc(-c2ccc(C#Cc3ccc4nc([C@@H]5CCCN5C(=O)[C@@H](NC(=O)OC)C(C)(C)C)[nH]c4c3)cc2)[nH]1)C(C)(C)C [Compound 1041] | < 1 nM
O=C(N[C@@H](C(=O)N1CCC[C@H]1c1ncc(-c2ccc(C#Cc3ccc(-c4cnc([C@@H]5CCCN5C(=O)[C@H](NC(=O)C5CC5)c5ccccc5)[nH]4)cc3)cc2)[nH]1)c1ccccc1)C1CC1 [Compound 153] | < 1 nM
CC(C)[C@@H](NC(=O)OC(C)(C)C)C(=O)N1CCC[C@H]1C(=O)NCCc1ccc(C#Cc2cnc([C@@H]3CCCN3C(=O)[C@H](NC(=O)OC(C)(C)C)C(C)C)[nH]2)cc1 [Compound 126] | 10 to 999 nM
COC(=O)N[C@H](C(=O)N1CCC[C@H]1c1nc2ccc(C#Cc3ccc(-c4cnc([C@@H]5CCCN5C(=O)[C@H](c5ccccc5)N(C)C)[nH]4)cc3)cc2[nH]1)C(C)C [Compound 864] | < 1 nM
COC(=O)N[C@@H](Cc1ccccc1)C(=O)N1CCC[C@H]1c1ncc(-c2ccc(C#Cc3ccc4nc([C@@H]5CCCN5C(=O)[C@H](Cc5ccccc5)NC(=O)OC)[nH]c4c3)cc2)[nH]1 [Compound 1045] | < 1 nM
CC(C)[C@@H](NC(=O)OC(C)(C)C)C(=O)N1CCC[C@H]1c1ncc(-c2ccc(C#Cc3ccc(-c4cnc([C@@H]5CCCN5C(=O)[C@H](NC(=O)OC(C)(C)C)C(C)C)[nH]4)cc3)cc2)[nH]1 [Compound 152] | 10 to 999 nM
COC(=O)N[C@@H](CC(N)=O)C(=O)N1CCC[C@H]1c1ncc(-c2ccc(C#Cc3ccc4nc([C@@H]5CCCN5C(=O)[C@H](CC(N)=O)NC(=O)OC)[nH]c4c3)cc2)[nH]1 [Compound 1046] | 1 to 9.9 nM
COC(=O)N[C@@H](C(=O)N1CCC[C@H]1C(=O)Nc1ccc(C#Cc2ccc(-c3cnc([C@@H]4CCCN4C(=O)[C@H](NC(=O)OC)c4ccccc4)[nH]3)cc2)cc1)c1ccccc1 [Compound 171] | < 1 nM
C[C@@H](NC(=O)C1CC1)C(=O)N1CCC[C@H]1c1ncc(-c2ccc(C#Cc3ccc(-c4cnc([C@@H]5CCCN5C(=O)[C@@H](C)NC(=O)C5CC5)[nH]4)cc3)cc2)[nH]1 [Compound 154] | 1 to 9.9 nM
CC(C)(C)OC(=O)N[C@@H](C(=O)N1CCC[C@H]1C(=O)NCc1ccc(C#Cc2ccc(-c3cnc([C@@H]4CCCN4C(=O)[C@H](NC(=O)OC(C)(C)C)c4ccccc4)[nH]3)cc2)cc1)c1ccccc1 [Compound 189] | < 1 nM

SMILES | EC50
CC(C)(C)OC(=O)N1CCCC1c1ncc(-c2ccc(C#Cc3ccc4nc([C@@H]5CCCN5C(=O)OC(C)(C)C)[nH]c4c3)cc2)[nH]1 (stereo partly drawn) [Compound 1034] | 1 to 9.9 nM
COC(=O)N[C@H](C(=O)N1CCC[C@H]1c1ncc(-c2ccc(C#Cc3ccc(-c4cnc([C@@H]5CCCN5C(=O)[C@@H](c5ccccc5)N5CCCC5)[nH]4)cc3)cc2)[nH]1)C(C)C [Compound 984] | < 1 nM
CC(C)[C@@H](NC(=O)C1CC1)C(=O)N1CCC[C@H]1C(=O)NCc1ccc(C#Cc2cnc([C@@H]3CCCN3C(=O)[C@H](NC(=O)C3CC3)C(C)C)[nH]2)cc1 [Compound 122] | 1 to 9.9 nM
COC(=O)N[C@@H](C(=O)N1CCC[C@H]1c1ncc(-c2ccc(C#Cc3ccc(-c4cnc([C@@H]5CCCN5C(=O)c5cccnc5)[nH]4)cc3)cc2)[nH]1)c1ccccc1 [Compound 183] | < 1 nM
COC(=O)N[C@H](C(=O)N1CCC[C@H]1c1nc(-c2cnc3cc(C#Cc4ccc(-c5cnc([C@@H]6CCCN6C(=O)[C@@H](NC(=O)OC)C(C)C)[nH]5)cc4)ccc3c2)c[nH]1)C(C)C [Compound 1088] | 1 to 9.9 nM
O=S(=O)(c1ccccc1)N1CCC[C@H]1c1ncc(-c2ccc(C#Cc3ccc4nc([C@@H]5CCCN5S(=O)(=O)c5ccccc5)[nH]c4c3)cc2)[nH]1 [Compound 1038] | > 1000 nM
COC(=O)N[C@@H](C(=O)N1CCC[C@H]1c1ncc(-c2ccc(C#Cc3ccc(-c4cnc([C@@H]5CCCN5C(=O)[C@H](NC(=O)N5CCC(O)CC5)c5ccccc5)[nH]4)cc3)cc2)[nH]1)c1ccccc1 [Compound 241] | < 1 nM
COC(=O)N[C@H](C(=O)N1CCC[C@H]1c1ncc(-c2ccc(C#Cc3ccc(-c4cnc([C@@H]5CCCN5C(=O)[C@@H](c5ccccc5)N5CCC(C)(O)CC5)[nH]4)cc3)cc2)[nH]1)C(C)C [Compound 970] | < 1 nM
CCN(CC)[C@@H](C(=O)N1CCC[C@H]1c1ncc(-c2ccc(C#Cc3ccc(-c4cnc([C@@H]5CCCN5C(=O)[C@H](NS(C)(=O)=O)c5ccccc5)[nH]4)cc3)cc2)[nH]1)c1ccccc1 [Compound 229] | < 1 nM
O=C(N[C@@H](C(=O)N1CCC[C@H]1c1ncc(C#Cc2ccc(C#Cc3cnc([C@@H]4CCCN4C(=O)[C@H](NC(=O)C4CC4)c4ccccc4)[nH]3)cc2)[nH]1)c1ccccc1)C1CC1 [Compound 303] | < 1 nM
CC(C)(C)OC(=O)N[C@@H](C(=O)N1CCC[C@H]1c1ncc(C#Cc2ccc(-c3cnc([C@@H]4CCCN4C(=O)[C@H](NC(=O)OC(C)(C)C)c4ccccc4)[nH]3)cc2)[nH]1)c1ccccc1 [Compound 99] | < 1 nM
O=C(N[C@@H](C(=O)N1CCC[C@H]1C(=O)NCc1ccc(C#Cc2cnc([C@@H]3CCCN3C(=O)[C@H](NC(=O)C3CC3)c3ccccc3)[nH]2)cc1)c1ccccc1)C1CC1 [Compound 121] | < 1 nM
COC(=O)N[C@@H](C(=O)N1CCC[C@H]1c1ncc(C#Cc2ccc(-c3cnc([C@@H]4CCCN4C(=O)[C@@H](c4ccccc4)N(C)C)[nH]3)cc2)[nH]1)c1ccccc1 [Compound 123] | < 1 nM
C[C@H](NC(=O)[C@@H]1CCCN1C(=O)[C@H](NC(=O)C1CC1)c1ccccc1)c1ccc(C#Cc2ccc(-c3cnc([C@@H]4CCCN4C(=O)[C@H](NC(=O)C4CC4)c4ccccc4)[nH]3)cc2)cc1 [Compound 191] | < 1 nM
COC(=O)N[C@H](C(=O)N[C@H](c1ncc(-c2ccc(C#Cc3ccc(-c4cnc([C@@H]5CCCN5C(=O)[C@@H](NC(=O)OC)C(C)C)[nH]4)cc3)cc2)[nH]1)C(C)C)C(C)C [Compound 276] | 1 to 9.9 nM

Same assay, conditions: Hepatitis C virus, Huh-7, read-out: Inhibition of HCV genotype 1b

SMILES | EC50
COC(=O)N[C@H](C(=O)N1CCN(C(=O)OC)C[C@H]1c1ncc(-c2ccc(C#Cc3ccc(-c4cnc([C@@H]5CCCN5C(=O)[C@H](NC(=O)OC)c5ccccc5)[nH]4)cc3)cc2)[nH]1)C(C)C [Compound 1206] | < 1 nM
CC[C@H](C)[C@H](NC(=O)OC)C(=O)N1CCC[C@H]1c1ncc(-c2ccc(C#Cc3ccc(-c4cnc([C@@H]5CCCN5C(=O)[C@@H](NC(=O)OC)[C@@H](C)CC)[nH]4)cc3)cc2)[nH]1 [Compound 1216] | < 1 nM
COC(=O)N[C@H](C(=O)N1CCC[C@H]1c1ncc(-c2ccc(C#Cc3ccc4nc([C@@H]5CCCN5C(=O)[C@@H](NC(=O)OC)C(C)C)[nH]c4c3)cc2F)[nH]1)C(C)C [Compound 1223] | < 1 nM
C#CC[C@H](NC(=O)OC)C(=O)N1CCC[C@H]1c1nc2ccc(C#Cc3ccc4c(c3)CCCc3nc([C@@H]5CCCN5C(=O)[C@@H](NC(=O)OC)C(C)C)[nH]c3-4)cc2[nH]1 [Compound 1284] | < 1 nM
COC(=O)N[C@H](C(=O)N1CCN(C(=O)OC)C[C@H]1c1ncc(-c2ccc(C#Cc3ccc(-c4cnc([C@@H]5CCCN5C(=O)[C@H](NC(=O)OC5CCOCC5)c5ccccc5)[nH]4)cc3)cc2)[nH]1)C(C)C [Compound 1207] | < 1 nM
COC(=O)N[C@H](C(=O)N1CCN(C(=O)OC)C[C@H]1c1ncc(-c2ccc(C#Cc3ccc(-c4cnc([C@@H]5CCCN5C(=O)[C@@H](NC(=O)OC)C5CCOCC5)[nH]4)cc3)cc2)[nH]1)C(C)C [Compound 1205] | < 1 nM
CC[C@H](C)[C@H](NC(=O)OC)C(=O)N1CCC[C@H]1c1nc(C(F)(F)F)c(C#Cc2ccc3cc(-c4cnc([C@@H]5CCCN5C(=O)[C@@H](NC(=O)OC)[C@@H](C)OC)[nH]4)ccc3c2)[nH]1 [Compound 1262] | < 1 nM
COC(=O)N[C@H](C(=O)N1CCC[C@H]1c1nc2c([nH]1)-c1ccc(C#Cc3ccc4nc([C@@H]5CCCN5C(=O)[C@@H](NC(=O)OC)C(C)C)[nH]c4c3)cc1CCC2)C(C)C [Compound 1279] | < 1 nM
COC(=O)N[C@H](C(=O)N1CCC[C@H]1c1ncc(-c2ccc(C#Cc3ccc(-c4cnc([C@@H]5CCCN5C(=O)[C@@H](NC(=O)OC)C(C)C)[nH]4)cc3C(=O)OC)cc2)[nH]1)C(C)C [Compound 1200] | < 1 nM
COC(=O)N[C@H](C(=O)N1CCC[C@H]1c1nc(C)c(C#Cc2ccc3cc(-c4cnc([C@@H]5CCCN5C(=O)[C@@H](NC(=O)OC)[C@@H](C)OC)[nH]4)ccc3c2)[nH]1)C1CCCC1 [Compound 1266] | < 1 nM
COC(=O)N[C@H](C(=O)N1CCC[C@H]1c1ncc(-c2ccc3cc(C#Cc4[nH]c([C@@H]5CCCN5C(=O)[C@@H](NC(=O)OC)C5CCOCC5)nc4C(F)(F)F)ccc3c2)[nH]1)C1CCOCC1 [Compound 1256] | < 1 nM
